Biological target: S. aureus GyrB ATPase (Staphylococcus aureus, UniProt P0A0K8)
Test: S. aureus GyrB ATPase inhibition (ammonium molybdate/malachite green phosphate detection)
Format: biochemical
Details: compound concentration of 1 μM (unless otherwise noted)
Procedure: E. coli GyrB ATPase Inhibition Activity: Compounds can be tested for inhibition of E. coli GyrB ATPase activity using an ammonium molybdate/malachite green-based phosphate detection assay (Lanzetta, P. A., L. J. Alvarez, P. S. Reinach, and O. A. Candia, 1979, 100: 95-97). Assays can be performed in multiwell plates in 30 μl reactions containing: 50 mM Hepes buffer pH 7.5, 75 mM ammonium acetate, 8.0 mM magnesium chloride, 0.5 mM ethylenediaminetetraacetic acid, 5% glycerol, 1 mM 1,4-Dithio-DL-threitol, 200 nM bovine serum albumin, 1.6 μg/ml sheared salmon sperm DNA, 400 pM E. coli GyrA, 400 pM E. coli GyrB, 250 μM ATP, and compound in dimethylsulfoxide. Reactions can be quenched with 30 μl of ammonium molybdate/malachite green detection reagent containing 1.2 mM malachite green hydrochloride, 8.5 mM ammonium molybdate tetrahydrate, and 1 M hydrochloric acid. Plates can be read in an absorbance plate reader at 650 nm and percent inhibition values are calculated using dimethylsulfoxide (2%)-containing reactions as 0% inhibition and EDTA-containing (2.4 μM) reactions as 100% inhibition controls. An IC50 measurement of compound potency for each compound can be determined from reactions performed in the presence of 10 different compound concentrations. E. coli Topoisomerase IV ATPase Inhibition Activity: Compounds can be tested for inhibition of E. coli topoisomerase IV ATPase activity as described above for E. coli GyrB except the 30 μl reactions contained the following: 20 mM TRIS buffer pH 8, 50 mM ammonium acetate, 8 mM magnesium chloride, 5% glycerol, 5 mM 1,4-Dithio-DL-threitol, 0.005% Brij-35, 5 μg/ml sheared salmon sperm DNA, 500 pM E. coli ParC, 500 pM E. coli ParE, 160 μM ATP, and compound in dimethylsulfoxide. An IC50 measurement of compound potency for each compound can be determined from reactions performed in the presence of 10 different compound concentrations. S. aureus GyrB ATPase Inhibition Activity: Compounds may be tested for inhibition of S. aureus GyrB ATPase activity using an ammonium molybdate/malachite green-based phosphate detection assay (Lanzetta, P. A., L. J. Alvarez, P. S. Reinach, and O. A. Candia, 1979, 100: 95-97). Assays can be performed in multiwell plates in 30 μl reactions containing: 50 mM Hepes buffer pH 7.5, 75 mM ammonium acetate, 8.0 mM magnesium chloride, 0.5 mM ethylenediaminetetraacetic acid, 5% glycerol, 1.0 mM 1,4-Dithio-DL-threitol, 200 nM bovine serum albumin, 1.0 μg/ml sheared salmon sperm DNA, 250 pM E. coli GyrA, 250 pM S. aureus GyrB, 250 μM ATP, and compound in dimethylsulfoxide. Reactions can be quenched with 30 μl of ammonium molybdate/malachite green detection reagent containing 1.2 mM malachite green hydrochloride, 8.5 mM ammonium molybdate tetrahydrate, and 1 M hydrochloric acid. Plates can be read in an absorbance plate reader at 650 nm and percent inhibition values can be calculated using dimethylsulfoxide (2%)-containing reactions as 0% inhibition and EDTA-containing (2.4 μM) reactions as 100% inhibition controls. An IC50 measurement of compound potency for each compound can be determined from reactions performed in the presence of 10 different compound concentrations.
Compounds of the invention were tested in an assay substantially similar to the assay described above for measuring the inhibition of S. aureus GyrB ATPase. Percent inhibition of S. aureus GyrB ATPase at a compound concentration of 1 μM (unless otherwise noted) is disclosed in the following table: […]

Chain of S. aureus GyrB ATPase (P0AES4 whole entry): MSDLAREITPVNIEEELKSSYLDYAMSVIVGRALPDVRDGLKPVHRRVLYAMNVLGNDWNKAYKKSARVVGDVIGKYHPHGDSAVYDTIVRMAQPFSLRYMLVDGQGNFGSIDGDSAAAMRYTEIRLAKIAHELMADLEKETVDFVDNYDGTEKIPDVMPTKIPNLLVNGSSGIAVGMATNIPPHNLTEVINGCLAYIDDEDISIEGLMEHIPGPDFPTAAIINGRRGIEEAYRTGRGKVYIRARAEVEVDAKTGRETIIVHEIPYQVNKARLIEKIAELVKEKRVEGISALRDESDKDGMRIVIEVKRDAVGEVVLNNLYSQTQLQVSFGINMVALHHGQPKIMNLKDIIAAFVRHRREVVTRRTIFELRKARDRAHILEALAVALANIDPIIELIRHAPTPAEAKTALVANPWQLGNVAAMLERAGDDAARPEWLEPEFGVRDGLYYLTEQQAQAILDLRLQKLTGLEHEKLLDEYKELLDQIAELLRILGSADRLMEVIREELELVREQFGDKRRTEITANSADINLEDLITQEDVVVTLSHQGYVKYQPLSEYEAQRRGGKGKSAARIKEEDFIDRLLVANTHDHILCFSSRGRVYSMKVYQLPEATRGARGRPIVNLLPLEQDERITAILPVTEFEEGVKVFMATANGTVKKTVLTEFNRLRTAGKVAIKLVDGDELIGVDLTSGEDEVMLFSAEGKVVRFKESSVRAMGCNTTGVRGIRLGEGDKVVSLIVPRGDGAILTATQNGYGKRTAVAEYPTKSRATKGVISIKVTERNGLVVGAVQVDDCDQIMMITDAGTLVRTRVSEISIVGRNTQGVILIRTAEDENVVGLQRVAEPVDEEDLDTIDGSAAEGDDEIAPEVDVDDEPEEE
Chain of S. aureus GyrB ATPase (P0A0K8 whole entry): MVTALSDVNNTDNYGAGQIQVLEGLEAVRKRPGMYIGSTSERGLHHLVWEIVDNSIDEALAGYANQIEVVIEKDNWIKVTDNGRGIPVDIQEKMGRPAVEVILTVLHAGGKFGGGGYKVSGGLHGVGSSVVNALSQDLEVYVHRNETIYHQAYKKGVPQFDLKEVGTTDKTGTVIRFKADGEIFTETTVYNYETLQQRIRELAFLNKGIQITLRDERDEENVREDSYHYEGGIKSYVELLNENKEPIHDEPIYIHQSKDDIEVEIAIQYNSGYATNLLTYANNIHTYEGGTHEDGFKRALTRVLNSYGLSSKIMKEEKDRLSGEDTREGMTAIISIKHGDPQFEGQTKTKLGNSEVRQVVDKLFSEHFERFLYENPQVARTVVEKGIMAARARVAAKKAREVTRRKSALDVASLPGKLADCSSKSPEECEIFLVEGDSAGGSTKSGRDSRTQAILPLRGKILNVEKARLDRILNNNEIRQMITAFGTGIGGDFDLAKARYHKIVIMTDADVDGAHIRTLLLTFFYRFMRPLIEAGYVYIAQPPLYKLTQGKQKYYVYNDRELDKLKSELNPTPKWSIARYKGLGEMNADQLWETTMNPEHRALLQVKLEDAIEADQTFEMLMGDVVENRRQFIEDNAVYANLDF

| SMILES | inhibition at 1 µM [%] |
| --- | --- |
| CCO[C@H]1CN(c2nc(-c3cnc(N4CCN(CC(C)C)CC4)cn3)c(C(=O)O)s2)CC[C@H]1NC(=O)c1[nH]c(C)c(Cl)c1Cl [Example 96] | 104 |
| CCO[C@H]1CN(c2nc(-c3cnc(N4CCN(CC5CCCN(C)C5)CC4)cn3)c(C(=O)O)s2)CC[C@H]1NC(=O)c1[nH]c(C)c(Cl)c1Cl (some centres unmarked) [Example 97] | 112 |
| CCO[C@H]1CN(c2nc(-c3cnc(N4CCN(CC5CCCCC5)CC4)cn3)c(C(=O)O)s2)CC[C@H]1NC(=O)c1[nH]c(C)c(Cl)c1Cl [Example 98] | 116 |
| CCO[C@H]1CN(c2nc(-c3cnc(N4CCN(C(CC)CC)CC4)cn3)c(C(=O)O)s2)CC[C@H]1NC(=O)c1[nH]c(C)c(Cl)c1Cl [Example 99] | 106 |
| CCO[C@H]1CN(c2nc(-c3cnc(N4CCN(CC)CC4)cn3)c(C(=O)O)s2)CC[C@H]1NC(=O)c1[nH]c(C)c(Cl)c1Cl [Example 100] | 102 |
| CCO[C@H]1CN(c2nc(-c3cnc(N4CCN(CCN(CC)CC)CC4)cn3)c(C(=O)O)s2)CC[C@H]1NC(=O)c1[nH]c(C)c(Cl)c1Cl [Example 101] | 117 |
| CCO[C@H]1CN(c2nc(-c3cnc(N4CCN[C@H](C)C4)cn3)c(C(=O)O)s2)CC[C@H]1NC(=O)c1[nH]c(C)c(Cl)c1Cl [Example 102] | 112 |
| CCO[C@H]1CN(c2nc(-c3cnc(N4CCN(CCO)CC4)cn3)c(C(=O)O)s2)CC[C@H]1NC(=O)c1[nH]c(C)c(Cl)c1Cl [Example 103] | 102 |
| CCO[C@H]1CN(c2nc(-c3cnc(N4CCN(CC5CCCO5)CC4)cn3)c(C(=O)O)s2)CC[C@H]1NC(=O)c1[nH]c(C)c(Cl)c1Cl (some centres unmarked) [Example 104] | 105 |
| CO[C@H]1CN(c2nc(-c3cnc(N4CCCCC4)cn3)c(C(=O)O)s2)CC[C@H]1NC(=O)c1[nH]c(C)c(Cl)c1Cl [Example 124] | 112 |
| CO[C@H]1CN(c2nc(-c3cnc(N4CCOCC4)cn3)c(C(=O)O)s2)CC[C@H]1NC(=O)c1[nH]c(C)c(Cl)c1Cl [Example 125] | 111 |
| CO[C@H]1CN(c2nc(-c3cnc(N4CCNCC4)cn3)c(C(=O)O)s2)CC[C@H]1NC(=O)c1[nH]c(C)c(Cl)c1Cl [Example 126] | 108 |
| CO[C@H]1CN(c2nc(-c3cnc(NCCN4CCCC4=O)cn3)c(C(=O)O)s2)CC[C@H]1NC(=O)c1[nH]c(C)c(Cl)c1Cl [Example 127] | 110 |
| COCCNc1cnc(-c2nc(N3CC[C@@H](NC(=O)c4[nH]c(C)c(Cl)c4Cl)[C@@H](OC)C3)sc2C(=O)O)cn1 [Example 128] | 110 |
| COCC(COC)Nc1cnc(-c2nc(N3CC[C@@H](NC(=O)c4[nH]c(C)c(Cl)c4Cl)[C@@H](OC)C3)sc2C(=O)O)cn1 [Example 129] | 103 |
| CO[C@H]1CN(c2nc(-c3cnc(NCCN4CCOCC4)cn3)c(C(=O)O)s2)CC[C@H]1NC(=O)c1[nH]c(C)c(Cl)c1Cl [Example 130] | 107 |

| SMILES | inhibition at 1 µM [%] |
| --- | --- |
| CO[C@H]1CN(c2nc(-c3cnc(NCCN4CCNC4=O)cn3)c(C(=O)O)s2)CC[C@H]1NC(=O)c1[nH]c(C)c(Cl)c1Cl [Example 131] | 108 |
| CO[C@H]1CN(c2nc(-c3cnc(NCCN(C)C)cn3)c(C(=O)O)s2)CC[C@H]1NC(=O)c1[nH]c(C)c(Cl)c1Cl [Example 132] | 103 |
| CO[C@H]1CN(c2nc(-c3cnc(NCCN4CCN(C)CC4)cn3)c(C(=O)O)s2)CC[C@H]1NC(=O)c1[nH]c(C)c(Cl)c1Cl [Example 133] | 112 |
| CO[C@H]1CN(c2nc(-c3cnc(N4CCN(CC(C)C)CC4)cn3)c(C(=O)O)s2)CC[C@H]1NC(=O)c1[nH]c(C)c(Cl)c1Cl [Example 134] | 104 |
| CO[C@H]1CN(c2nc(-c3cnc(N4CCN(CC5CCCN(C)C5)CC4)cn3)c(C(=O)O)s2)CC[C@H]1NC(=O)c1[nH]c(C)c(Cl)c1Cl (some centres unmarked) [Example 135] | 98 |
| CO[C@H]1CN(c2nc(-c3cnc(N4CCN(CC5CCCCC5)CC4)cn3)c(C(=O)O)s2)CC[C@H]1NC(=O)c1[nH]c(C)c(Cl)c1Cl [Example 136] | 104 |
| CCC(CC)N1CCN(c2cnc(-c3nc(N4CC[C@@H](NC(=O)c5[nH]c(C)c(Cl)c5Cl)[C@@H](OC)C4)sc3C(=O)O)cn2)CC1 [Example 137] | 101 |
| CCN1CCN(c2cnc(-c3nc(N4CC[C@@H](NC(=O)c5[nH]c(C)c(Cl)c5Cl)[C@@H](OC)C4)sc3C(=O)O)cn2)CC1 [Example 138] | 103 |
| CO[C@H]1CN(c2nc(-c3cnc(N4CCN[C@H](C)C4)cn3)c(C(=O)O)s2)CC[C@H]1NC(=O)c1[nH]c(C)c(Cl)c1Cl [Example 140] | 107 |
| CO[C@H]1CN(c2nc(-c3cnc(N4CCN(CCO)CC4)cn3)c(C(=O)O)s2)CC[C@H]1NC(=O)c1[nH]c(C)c(Cl)c1Cl [Example 141] | 103 |
| CO[C@H]1CN(c2nc(-c3cnc(N4CCN(CC5CCCO5)CC4)cn3)c(C(=O)O)s2)CC[C@H]1NC(=O)c1[nH]c(C)c(Cl)c1Cl (some centres unmarked) [Example 142] | 103 |
| CCN1CCN(c2cnc(-c3nc(N4CC[C@@H](NC(=O)c5[nH]c(C)c(Cl)c5Cl)[C@@H](C)C4)sc3C(=O)O)cn2)CC1 [Example 164, 2-[(3S,4R)-4-{[(3,4-dichloro-5-methyl-1H-pyrrol-2-yl)carbonyl]amino}-3-methylpiperidin-1-yl]-4-[5-(4-ethylpiperazin-1-yl)pyrazin-2-yl]-1,3-thiazole-5-carboxylic acid] | 117 |
| Cc1[nH]c(C(=O)N[C@@H]2CCN(c3nc(-c4cnc(N5CCCCC5)cn4)c(C(=O)O)s3)C[C@@H]2C)c(Cl)c1Cl [Example 165, 2-[(3S,4R)-4-{[(3,4-dichloro-5-methyl-1H-pyrrol-2-yl)carbonyl]amino}-3-methylpiperidin-1-yl]-4-[5-(piperidin-1-yl)pyrazin-2-yl]-1,3-thiazole-5-carboxylic acid] | 107 |
| Cc1[nH]c(C(=O)N[C@@H]2CCN(c3nc(-c4cnc(N5CCOCC5)cn4)c(C(=O)O)s3)C[C@@H]2C)c(Cl)c1Cl [Example 166, 2-[(3S,4R)-4-{[(3,4-dichloro-5-methyl-1H-pyrrol-2-yl)carbonyl]amino}-3-methylpiperidin-1-yl]-4-[5-(morpholin-4-yl)pyrazin-2-yl]-1,3-thiazole-5-carboxylic acid] | 110 |
| Cc1[nH]c(C(=O)N[C@@H]2CCN(c3nc(-c4cnc(N5CCN(C)CC5)cn4)c(C(=O)O)s3)C[C@@H]2C)c(Cl)c1Cl [Example 167, 2-[(3S,4R)-4-{[(3,4-dichloro-5-methyl-1H-pyrrol-2-yl)carbonyl]amino}-3-methylpiperidin-1-yl]-4-[5-(4-methylpiperazin-1-yl)pyrazin-2-yl]-1,3-thiazole-5-carboxylic acid] | 113 |
| Cc1[nH]c(C(=O)N[C@@H]2CCN(c3nc(-c4cnc(N5CCNCC5)cn4)c(C(=O)O)s3)C[C@@H]2C)c(Cl)c1Cl [Example 168, 2-[(3S,4R)-4-{[(3,4-dichloro-5-methyl-1H-pyrrol-2-yl)carbonyl]amino}-3-methylpiperidin-1-yl]-4-[5-(piperazin-1-yl)pyrazin-2-yl]-1,3-thiazole-5-carboxylic acid] | 102 |
